Measurements taken from US20260256793A1, “ALTERATION OF F-BOX AND WD REPEAT DOMAIN CONTAINING 7 (FBXW7) GENE AS A PREDICTIVE BIOMARKER FOR TREATING CANCER WITH WEE1 INHIBITORS” (Zeno Management, Inc., priority 2023, published 2026).

Key:
[1] = system: Parental DLD-1 colorectal cancer cells; test: Western blot (Jess) of WEE1, pCDK1, replication stress, DNA damage and apoptosis markers after Azenosertib treatment, parental cells; assay type: cell-based
Experimental: (§1) FIG. 8 is a Western Blot image showing levels of FBXW7, WEE1 kinase, Cyclin E1, and other replication stress, DNA damage, apoptosis markers in DLD-1 parental and DLD-1 FBXW7-knockout colorectal cancer cells treated with DMSO (negative control) and 250 nM, 1 μM, and 10 µM of Azenosertib for 8 hours, 24 hours, or 48 hours.
(§2) Parental DLD-1 colorectal cancer cells or FBXW7 knockout (FBXW7-KO) DLD-1 cells (Creative Biogene, Cat No. CSC-RT0018, Lot No. 081723ZYX) were cultured in RPMI 1640 medium (ATCC modification) (Giboco) supplemented with 10% FBS (Gibco) and 1% penicillin-streptomycin (Gibco). Cells were maintained at 37° C. in an atmosphere containing 5% CO2.
(§3) The cultured cells were seeded at optimal density in 6-well plates, allowed to adhere overnight, and then treated with Azenosertib (250 nM, 1 μM, or 10 μM), with DMSO treatment as a negative control. After 8, 24, and 48 hours of drug exposure, cells were harvested, rinsed with PBS, lysed with cold RIPA buffer (Sigma) containing protease and phosphatase inhibitors for 15 minutes, and centrifuged at 4° C., 15,000 rpm for 15 minutes. Protein concentrations were measured using the Pierce BCA Protein Assay kit (Thermo Fisher). Jess™ plates were loaded and run according to the manufacturer's instructions (Bio-Techne). Primary antibodies anti-FBXW7 and anti-Cyclin E1 were purchased from Abcam, anti-phospho-H3, anti-Vinculin, anti-γH2AX, anti-phospho-CDK1, anti-phsopho-Chk1, anti-cleaved caspase 3, anti-Wee1, and anti-CDK1 were purchased from Cell Signaling Technology.

[2] = system: FBXW7 knockout (FBXW7-KO) DLD-1 cells; test: Western blot (Jess) of WEE1, pCDK1, replication stress, DNA damage and apoptosis markers after Azenosertib treatment, FBXW7 knockout cells; assay type: cell-based
Experimental: as §1, §2, §3

[3] = system: solid tumor patients (HGSOC, USC, endometrial, colorectal, peritoneum cancer), FBXW7-mutated or wild-type; test: Clinical outcome of Azenosertib monotherapy by FBXW7 mutational status (composite cohort of 356 patients); assay type: in vivo, human; settings: daily dose at least 300 mg; for Objective Response Rate (ORR): continuous or intermittent schedule, p<0.02, FIG. 9A; for target lesion size reduction (median): p<0.05, FIG. 9B
Experimental: FIG. 9B is a waterfall plot of the tumor size change in FBXW7-mutated or wild-type human subjects.
The predictive value of FBXW7 was investigated in a composite cohort of 356 patients treated with a daily dose of at least 300 mg of Azenosertib monotherapy on a continuous dosing schedule or an intermittent dosing schedule (e.g., 5 days on/2 days off, 4 days on/3 days off) and profiled with high-throughput DNA sequencing. Specifically, this composite cohort of patients was treated with a daily dose of 300 mg, or 350 mg, or 400 mg, or 450 mg of Azenosertib monotherapy on a continuous dosing schedule (i.e., QD, 7 days a week without any intermission), a daily dose of 300 mg, or 350 mg, or 400 mg, or 450 mg, or of 500 mg of Azenosertib monotherapy on an intermittent 5 days on/2 days off or 4 days on/3 days off schedule). The source of mutational status was a combination of local (reports from clinical sites) or central testing from either tumor or cell-free DNA. The mutational status was determined as mutated when at least one of the reports reported a pathogenic mutation and unmutated (wild-type) when all reports covering the FBXW7 gene were negative. The cohort investigated consists of patients diagnosed with high-grade serous ovarian carcinoma or HGSOC (N=211), uterine serous carcinoma or USC (N=57) or other solid tumor cancers including endometrial cancer, colorectal cancer, and peritoneum cancer […]. The patients mutated for FBXW7 (N=17-including […], 7 USC, 2 endometrial and 3 colorectal), were more likely to respond to Azenosertib monotherapy (Objective Response Rate or ORR=41% (7/17) for FBXW7-mutated patients vs. 16% (53/339) for FBXW7-wild-type patients; p<0.02—FIG. 9A [BOR=Best Overall Response; CR=Complete Response; PR—Partial Response; uPR=Unconfirmed Partial Response; SD=Stable Disease; PD=Progressive Disease).

[4] = 250 nM, 1 μM, 10 μM, 8, 24, 48 hours, vs DMSO, FIG. 8
[5] = FBXW7-KO DLD-1, 250 nM, 1 μM, 10 μM, 8, 24, 48 hours, vs DMSO, FIG. 8
[6] = FBXW7-KO DLD-1, 10 μM, more significant DNA damage compared to parental cell line

SMILES: C=CCn1c(=O)c2cnc(Nc3ccc(N4CCN(C)CC4)cc3)nc2n1-c1ccc2c(n1)[C@@](O)(CC)CC2 [Azenosertib]
- WEE1 levels [1, 4]: dose-dependent decrease
- phospho-CDK1 (pCDK1) levels [1, 4]: dose-dependent decrease
- pCDK1 level ([1]; 10 μM, 48 hours): decreasing significantly
- WEE1 levels [2, 5]: dose-dependent decrease
- phospho-CDK1 (pCDK1) levels [2, 5]: dose-dependent decrease
- pCDK1 level ([2]; FBXW7-KO DLD-1, 10 μM, 48 hours): decreasing significantly
- gamma-H2AX (γH2AX) levels (DNA damage) [2, 6]: increase
- phospho-Chk1 (pChk1) levels (DNA damage) [2, 6]: increase
- cleaved caspase 3 levels (apoptosis) ([2]; FBXW7-KO DLD-1, e.g. 10 µM at 24 hours and 48 hours, compared to parental cell line): increase
- sensitivity to treatment with Azenosertib ([2]; FBXW7-KO cells compared to the parental cell line): more sensitive
- Objective Response Rate (ORR) ([3]; FBXW7-mutated patients (7/17)): 41%
- target lesion size reduction (median) ([3]; FBXW7-mutated patients): −41%
- Objective Response Rate (ORR) ([3]; FBXW7-wild-type patients (53/339)): 16%
- target lesion size reduction (median) ([3]; second-named group, FBXW7-wild-type patients): −8%
